Earlier results as cited in patent US20070231385A1, “Controlled Release Pharmaceutical Composition and a Process for Preparing the Same” (Lupin Limited, priority 2003, published 2007).

Conditions: background statement

For `Cc1ccnc2c1NC(=O)c1cccnc1N2C1CC1` [Nevaripine], the serum half-life is given as “more than 25 hours”.
